The record followed here is US20090247560A1, “Diaryl ketimine derivative” (Banyu Pharmaceutical Co., Ltd., priority 2006, published 2009).

In general, IC50 refers to the point on the concentration scale where inhibition reaches its midpoint. Low values mean inhibition by little substance, high ones a need for much substance.

The experiment has as its target T1, human MCH-1R (Homo sapiens, UniProt Q99705).
T1 construct: expressed in transfected cells; host or cells: CHO-K1 (American Type Culture Collection), membrane samples
The experiment in a line: MCH binding inhibition test. As to conditions: inhibition of specific [125I]MCH binding to membranes of CHO-K1 cells expressing human MCH-1R; 25° C., one hour, pH 7.4. The method, then:
A human MCH-1R encoding cDNA sequence [FEBS Letters, Vol. 398, 253 (1996); Biochimica et Biophisica Acta, Vol. 1401, 216 (1998)] was cloned to a plasmid vector pEF/myc/cyto (Invitrogen Corporation). The obtained expression vector was transfected to host cells CHO-K1 (American Type Culture Collection) using Lipofectamine Plus Reagent (Life Technology Inc.) to provide MCH-1R expression cells.
Membrane samples prepared from the MCH-1R expression cells were incubated with each test compound and […] of [^125I]MCH (NEN Co.), in an assay buffer (50 mM Tris buffer comprising 10 mM magnesium chloride, 2 mM ethylenediamine tetraacetate, 0.01% bacitracin and 0.2% bovine serum albumin; pH 7.4) at 25° C. for an hour, followed by filtration through a glass filter CF/C (Wattman Co.). After washing the glass filter with 50 mM Tris buffer (pH 7.4) comprising 10 mM magnesium chloride, 2 mM ethylenediamine tetraacetate and 0.04% Tween-20, the radioactive activity on the glass filter was measured.

T1 sequence (Q99705 whole entry): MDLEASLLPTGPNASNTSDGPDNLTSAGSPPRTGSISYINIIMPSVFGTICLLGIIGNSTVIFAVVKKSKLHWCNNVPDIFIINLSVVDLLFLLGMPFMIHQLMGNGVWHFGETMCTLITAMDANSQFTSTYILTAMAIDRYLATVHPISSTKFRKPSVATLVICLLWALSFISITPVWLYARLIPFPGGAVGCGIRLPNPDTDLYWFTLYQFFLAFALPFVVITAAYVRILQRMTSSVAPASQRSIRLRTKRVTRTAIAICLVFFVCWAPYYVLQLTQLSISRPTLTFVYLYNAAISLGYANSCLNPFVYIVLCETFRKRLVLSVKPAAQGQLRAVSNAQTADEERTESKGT

Regarding `CC(c1ccc(/C(=N/OCCF)c2ccc(F)c(F)c2)nc1)N1CCC2(CC1)OCc1ccncc12` (single isomer, unassigned) [Example 2-1-3, (E)-(3,4-difluorophenyl){5-[1-(1H,1′H-spiro[furo[3,4-c]pyridine-3,4′-piperidin]-1′-yl)ethyl]pyridin-2-yl}methanone O-(2-fluoroethyl)oxime], the IC50 was 1.55 nM.
Consider `CC(c1ccc(/C(=N/OCC(C)(C)O)c2ccc(F)c(F)c2)nc1)N1CCC2(CC1)OCc1ccncc12` (single isomer, unassigned) [Example 3-1-13, (E)-(3,4-difluorophenyl){5-[1-(1H,1′H-spiro[furo[3,4-c]pyridine-3,4′-piperidin]-1′-yl)ethyl]-2-pyridinyl}methanone O-(2-hydroxy-2-methylpropyl)oxime], for which the IC50 is 4.01 nM.
For `CCO/N=C(\c1ccc(F)c(F)c1)c1ncc(CN2CCC3(CC2)OCc2ccncc23)cn1` [Example 1-3-2, (E) or (Z)-(3,4-difluorophenyl)[5-(1H,1′H-spiro[furo[3,4-c]pyridine-3,4′-piperidin]-1′-ylmethyl)pyrimidin-2-yl]methanone O-ethyloxime], the IC50 was determined as 8.9 nM.
`FCCO/N=C(/c1ccc(CN2CCC3(CC2)OCc2ccncc23)cc1)c1ccc(F)c(F)c1` [Example 2-1-2, (Z)-(3,4-difluorophenyl)[4-(1H,1′H-spiro[furo[3,4-c]pyridine-3,4′-piperidin]-1′-ylmethyl)phenyl]methanone O-(2-fluoroethyl)oxime]: the IC50 worked out at 0.07 nM.
In turn, `CN(C)C(=O)CO/N=C(/c1ccc(CN2CCC3(CC2)OCc2cc(F)ncc23)cc1)c1ccc(F)c(F)c1` [Example 2-6, 2-{[((1Z)-(3,4-difluorophenyl){4-[(6-fluoro-1H,1′H-spiro[furo[3,4-c]pyridine-3,4′-piperidin]-1′-yl)methyl]phenyl}methylene)amino]oxy}-N,N-dimethylacetamide] showed an IC50 of 0.27 nM.
In turn, `Cn1cc2c(cc1=O)C1(CCN(Cc3ccc(/C(=N/OCC#N)c4ccc(F)c(F)c4)nc3)CC1)OC2` [Example 2-10-2, {[((1E)-(3,4-difluorophenyl){5-[(5-methyl-6-oxo-5,6-dihydro-1′H,3H-spiro[furo[3,4-c]pyridine-1,4′-piperidin]-1′-yl)methyl]pyridin-2-yl}methylene)amino]oxy}acetonitrile] returned an IC50 of 9.03 nM.
Regarding `CCO/N=C(\c1ccc(F)c(F)c1)c1ccc(CN2CCC3(CC2)OCc2cc[n+]([O-])cc23)cn1` [Example 3-1-11, (E)-(3,4-difluorophenyl){5-[(5-oxido-1H,1′H-spiro[furo[3,4-c]pyridine-3,4′-piperidin]-1′-yl)methyl]-2-pyridinyl}methanone O-ethyloxime], the IC50 was found to be 4.7 nM.
For `Cn1cc2c(cc1=O)C1(CCN(Cc3ccc(/C(=N/OCF)c4ccc(F)c(F)c4)nc3)CC1)OC2` [Example 3-1-15, 1′-[(6-{(E)-(3,4-difluorophenyl)[(fluoromethoxy)imino]methyl}-3-pyridinyl)methyl]-5-methyl-3,5-dihydro-6H-spiro[furo[3,4-c]pyridine-1,4′-piperidin]-6-one], the IC50 came out at 8.37 nM.
